Results as given in US20170340690A1, “METHOD FOR IMPROVING INTESTINAL HEALTH USING EXTRACTS OF CODONOPSIS LANCEOLATA” (KOREA INSTITUTE OF SCIENCE AND TECHNOLOGY, priority 2016, published 2017).

Experiments:
[1] = system: intestinal microorganisms; test: Measurement of growth of intestinal microorganisms (absorbance at 600 nm); assay type: cell-based, human; conditions: normal medium condition (FIG. 1), 37° C., 48 hours, extract 100 μg/mL, FOS 1 mg/mL, chloramphenicol 10 or 40 μg/mL
[2] = system: intestinal microorganisms; test: Gas chromatographic analysis of content of short-chain fatty acids in culture medium of intestinal microorganisms; assay type: cell-based, human; conditions: 48 hours, extract 100 μg/mL, FOS 1 mg/mL, chloramphenicol 10 or 40 μg/mL; for Content (mM) of short-chain fatty acids: non-treated control 18.6 mM
Description: The analysis sample was subjected to centrifugation of the 96-well plate at 3500 rpm for 10 minutes. 400 μL of the obtained supernatant was stabilized by adding 20 μL of 50% sulfuric acid and then 40 μL of an internal standard (1% 2-methylpentanoic acid) was added. Then, after adding 400 μL of ethyl ether, the mixture was mixed for about 2 minutes by vortexing. The sample was centrifuged and the top ethyl ether layer was recovered and subjected to GC analysis. The analysis was performed using Bruker 450-GC and the Supelco's Nukol Fused silica capillary column ([…]×0.25 mm×0.25 μm). The analysis condition is described in Table 4.

β-glucuronidase = conditions: enzymatic activity divided by OD600; 37° C., 48 hours anaerobic culture; extract 100 μg/mL, FOS 1 mg/mL, chloramphenicol 10 or 40 μg/mL (FIG. 3)
Description: The samples were transfered to an anaerobic workstation within 30 minutes and treated quickly. After adding glycerol as an additive for storage at low temperature, the mixtures were stored in an ultra-low temperature freezer with 40 mL each and were used as samples for culturing of intestinal microorganisms.
Each bioreactor containing 300 mL of a medium was sterilized and maintained at an anaerobic condition by injecting nitrogen gas. Then, the sample of intestinal microorganisms prepared in Test Example 1 was inoculated. After conducting batch culturing for 24 hours, continuous culturing was performed using a medium of the same composition. Total residence time was 24 hours. Culturing temperature was maintained at 37° C. and pH was maintained at 5.5 using a 1 N hydrochloric acid solution and a 1 N sodium hydroxide solution. […] The culturing condition was maintained for at least 30 days. […]
The culture medium of intestinal microorganisms incubated and maintained with a culture medium in a fermenter under an anaerobic condition. […] The supernatant was taken and absorbance was measured at 405 nm. Then, relative β-glucuronidase activity (%) was calculated by dividing the enzymatic activity by the degree of growth of intestinal microorganisms (OD600).

tryptophanase = conditions: enzymatic activity divided by OD600; 37° C., 48 hours anaerobic culture; extract 100 μg/mL, FOS 1 mg/mL, chloramphenicol 10 or 40 μg/mL (FIG. 4)
Description: In order to quickly evaluate the effect of the candidate materials on improvement of intestinal microflora, culturing was performed using a 96-well plate. 10 μL of the culture medium of intestinal microorganisms maintained stably through anaerobic continuous culturing was inoculated to 1 mL of a medium for investigation described in Table 3. Culturing was performed at 37° C. for 48 hours by treating an extract of Codonopsis lanceolata for evaluating the effect of improving intestinal microflora at a concentration of 100 μg/mL (0.2% DMSO). […] At the same time, chloramphenicol (10 or 40 μg/mL) which is an antibiotic known to worsen intestinal microflora was used to compare the effect of improving intestinal microflora. Then, the effect of improving intestinal microflora was investigated by measuring the growth of intestinal microorganisms, the enzymatic activity of harmful bacteria, the content of short-chain fatty acids, etc. using the culture medium of microorganisms.
The culture medium of intestinal microorganisms incubated and maintained with a culture medium in a fermenter under an anaerobic condition. […] The supernatant was taken and absorbance was measured at 550 nm. Then, relative tryptophanase activity (%) was calculated by dividing the enzymatic activity by the degree of growth of intestinal microorganisms (OD600).

## O=C(N[C@H](CO)[C@H](O)c1ccc([N+](=O)[O-])cc1)C(Cl)Cl [chloramphenicol]
[1]
  growth of intestinal microorganisms: decreased growth of intestinal microorganisms
[2]
  Composition of short-chain fatty acids (%) Acetate: 54.36 ± 3.23%
  Composition of short-chain fatty acids (%) Butyrate: 20.24 ± 0.64%
  Composition of short-chain fatty acids (%) Propionate: 25.40 ± 0.89%
  Content (mM) of short-chain fatty acids: 2.03 mM
[2]; listed as Antibiotic (chloramphenicol)
  Content (mM) of short-chain fatty acids: 2.03 ± 0.06 mM
β-glucuronidase
  relative β-glucuronidase activity: increased β-glucuronidase activity
tryptophanase
  relative tryptophanase activity: increased tryptophanase activity
